Laboratory results reported in US4311699A, “Aminoacid derivatives of cephalosporin compounds” (priority 1980, dated 1982).
Converted amounts (≈) assume the structure as drawn.

How the values were obtained:
Test in all cases: in vitro antibacterial activity, minimal inhibitory concentration
Format in all cases: cell-based
[1] = system: E. coli Brig; settings: Escherichia coli
Description: (§1) The compounds of the invention are new chemical compounds that are used as pharmacological agents and especially as broad spectrum antibacterial agents. They are active in vitro against strains of both gram-positive and gram-negative bacteria.
(§2) Minimal Inhibitory Concentration (μg/ml)

[2] = system: E. coli Vogel; settings: Escherichia coli
Description: as §1, §2

[3] = system: Entero. cloacae; settings: Enterobacter cloacae
Description: as §1, §2

[4] = system: Klebs. pneu.
Description: as §1, §2

[5] = system: Prot. vulg.
Description: as §1, §2

[6] = system: Pseudomonas #28; settings: Pseudomonas #28, in vitro; read-out: Minimal Inhibitory Concentration
Description: as §1, §2

[7] = system: Pseudomonas BRK 12-4-4; settings: BRK1244; Pseudomonas BRK 12-4-4, in vitro
Description: as §1, §2

[8] = system: Pseudomonas UI 18; settings: UI18; Pseudomonas UI 18, in vitro
Description: as §1, §2

[9] = system: Serr. marces.
Description: as §1, §2

[10] = system: Staph. aureus S18733; settings: Staphylococcus aureus
Description: as §1, §2

[11] = system: Staph. aureus UC-76; settings: Staphylococcus aureus, UC76; Staph. aureus UC-76, in vitro
Description: as §1, §2

[12] = system: Strep. fec.
Description: as §1, §2

| SMILES | MIC [1] | MIC [2] | MIC [3] | MIC [4] | MIC [5] | MIC [6] | MIC [7] | MIC [8] | MIC [9] | MIC [10] | MIC [11] | MIC [12] |
| --- | --- | --- | --- | --- | --- | --- | --- | --- | --- | --- | --- | --- |
| CSCCC(NC(C)=O)C(=O)Nc1ccc(-c2ncc(C(=O)N[C@@H](C(=O)N[C@@H]3C(=O)N4C(C(=O)O)=C(COC(C)=O)CS[C@H]34)c3ccccc3)c(O)n2)cc1 (mixture of isomers) [Example 5, N-[2-[4-(N-Acetyl-DL-methionylamino)phenyl]-4-hydroxy-5-pyrimidinylcarbonyl]-7-[D-2-amino-2-phenylacetamido]-3-acetoxymethyl-3-cephem-4-carboxylic acid] | 25 µg/mL | 6.3 µg/mL | 25 µg/mL | 12.5 µg/mL | 25 µg/mL | 3.1 µg/mL | 6.3 µg/mL | 6.3 µg/mL | > 50 µg/mL | 3.1 µg/mL | 1.6 µg/mL | 50 µg/mL |
| CC(=O)NC(CC(C)C)C(=O)Nc1ccc(-c2ncc(C(=O)N[C@@H](C(=O)N[C@@H]3C(=O)N4C(C(=O)O)=C(COC(C)=O)CS[C@H]34)c3ccccc3)c(O)n2)cc1 (mixture of isomers) [Example 4, N-[2-[4-(N-Acetyl-DL-leucylamino)phenyl]-4-hydroxy-5-pyrimidinylcarbonyl]-7-[D-2-amino-2-phenylacetamido]-3-acetoxymethyl-3-cephem-4-carboxylic acid] | 25 µg/mL | 6.3 µg/mL | 25 µg/mL | 25 µg/mL | 25 µg/mL | 12.5 µg/mL | 12.5 µg/mL | 12.5 µg/mL | > 50 µg/mL | 6.3 µg/mL | 1.6 µg/mL | 50 µg/mL |
| CC(=O)NC(C)C(=O)Nc1ccc(-c2ncc(C(=O)N[C@@H](C(=O)NC3C(=O)N4C(C(=O)O)=C(CSc5nnnn5C)CSC34)c3ccccc3)c(O)n2)cc1 (mixture of isomers) [Example 24, N-[2-[4-(N-Acetyl-DL-alanylamino)phenyl]-4-hydroxy-5-pyrimidinylcarbonyl]-7-[D-2-amino-2-phenylacetamido]-3-[[(1-methyl-1H-tetrazol-5-yl)thio]methyl]-3-cephem-4-carboxylic acid] | 12.5 µg/mL | 3.1 µg/mL | 12.5 µg/mL | 1.6 µg/mL | 25 µg/mL | 6.3 µg/mL | 12.5 µg/mL | 6.3 µg/mL | 50 µg/mL | 3.1 µg/mL | 1.6 µg/mL | 50 µg/mL |
| CC(=O)NCC(=O)Nc1ccc(-c2ncc(C(=O)N[C@@H](C(=O)NC3C(=O)N4C(C(=O)O)=C(CSc5nnnn5C)CSC34)c3ccccc3)c(O)n2)cc1 (stereo partly drawn) [Example 22] | 6.3 µg/mL (≈ 8.14 µM) | 0.8 µg/mL (≈ 1.03 µM) | 6.3 µg/mL (≈ 8.14 µM) | 0.8 µg/mL (≈ 1.03 µM) | 6.3 µg/mL (≈ 8.14 µM) | 6.3 µg/mL (≈ 8.14 µM) | 12.5 µg/mL (≈ 16.2 µM) | 12.5 µg/mL (≈ 16.2 µM) | 50 µg/mL (≈ 64.6 µM) | 3.1 µg/mL (≈ 4.01 µM) | 1.6 µg/mL (≈ 2.07 µM) | 50 µg/mL (≈ 64.6 µM) |
| CC(=O)N[C@H](C)C(=O)Nc1ccc(-c2ncc(C(=O)N[C@@H](C(=O)NC3C(=O)N4C(C(=O)O)=C(CSc5nnnn5C)CSC34)c3ccc(O)cc3)c(O)n2)cc1 (stereo partly drawn) [Example 31, N-[2[4-(N-Acetyl-D-alanylamino)phenyl]-4-hydroxy-5-pyrimidinyl-carbonyl]-7-[D-2-amino-2-(4-hydroxyphenyl)acetamido]-3-[[(1-methyl-1H-tetrazol-5-yl)thiol]methyl]-3-cephem-4-carboxylic acid] | 6.3 µg/mL (≈ 7.84 µM) | 1.6 µg/mL (≈ 1.99 µM) | 6.3 µg/mL (≈ 7.84 µM) | 1.6 µg/mL (≈ 1.99 µM) | 6.3 µg/mL (≈ 7.84 µM) | 3.1 µg/mL (≈ 3.86 µM) | 3.1 µg/mL (≈ 3.86 µM) | 3.1 µg/mL (≈ 3.86 µM) | 50 µg/mL (≈ 62.2 µM) | 6.3 µg/mL (≈ 7.84 µM) | 3.1 µg/mL (≈ 3.86 µM) | 25 µg/mL (≈ 31.1 µM) |
| O=C(O)Cn1nnnc1SCC1=C(C(=O)O)N2C(=O)C(NC(=O)[C@H](NC(=O)c3cnc(-c4ccc(NC(=O)CN5CCCC5=O)cc4)nc3O)c3ccccc3)C2SC1 (stereo partly drawn) [Example 42] | 6.3 µg/mL (≈ 7.47 µM) | 3.1 µg/mL (≈ 3.67 µM) | 6.3 µg/mL (≈ 7.47 µM) | 3.1 µg/mL (≈ 3.67 µM) | 1.6 µg/mL (≈ 1.9 µM) | 6.3 µg/mL (≈ 7.47 µM) | 12.5 µg/mL (≈ 14.8 µM) | 6.3 µg/mL (≈ 7.47 µM) | 50 µg/mL (≈ 59.3 µM) | 25 µg/mL (≈ 29.6 µM) | 12.5 µg/mL (≈ 14.8 µM) | > 50 µg/mL |
| CC(=O)N[C@H](C)C(=O)Nc1ccc(-c2ncc(C(=O)N[C@@H](C(=O)N[C@@H]3C(=O)N4C(C(=O)O)=C(COC(N)=O)CS[C@H]34)c3ccccc3)c(O)n2)cc1 [Example 21] | 25 µg/mL (≈ 34.1 µM) | 12.5 µg/mL (≈ 17.1 µM) | 25 µg/mL (≈ 34.1 µM) | 12.5 µg/mL (≈ 17.1 µM) | 12.5 µg/mL (≈ 17.1 µM) | 3.1 µg/mL (≈ 4.23 µM) | 12.5 µg/mL (≈ 17.1 µM) | 12.5 µg/mL (≈ 17.1 µM) | > 50 µg/mL | 1.6 µg/mL (≈ 2.18 µM) | 0.8 µg/mL (≈ 1.09 µM) | 25 µg/mL (≈ 34.1 µM) |
| CC(=O)NC(C)C(=O)Nc1ccc(-c2ncc(C(=O)N[C@@H](C(=O)N[C@@H]3C(=O)N4C(C(=O)O)=C(COC(C)=O)CS[C@H]34)c3ccccc3)c(O)n2)cc1 (mixture of isomers) [Example 8, N-[2-[4-(N-Acetyl-DL-alanylamino)phenyl]-4-hydroxy-5-pyrimidinylcarbonyl]-7-[D-2-amino-2-phenylacetamido]-3-acetoxymethyl-3-cephem-4-carboxylic acid] | 25 µg/mL | 6.3 µg/mL | 50 µg/mL | 6.3 µg/mL | 50 µg/mL | 6.3 µg/mL | 12.5 µg/mL | 6.3 µg/mL | > 50 µg/mL | 1.6 µg/mL | 1.6 µg/mL | 50 µg/mL |
| CC(=O)NC(C)C(=O)Nc1ccc(-c2ncc(C(=O)N[C@@H](C(=O)NC3C(=O)N4C(C(=O)O)=C(CSc5nnnn5CC(=O)O)CSC34)c3ccccc3)c(O)n2)cc1 (mixture of isomers) [Example 35, N-[2-[4-(N-Acetyl-DL-alanylamino)phenyl]-4-hydroxy-5-pyrimidinylcarbonyl]-7-[D-2-phenylacetamido-3-[[(1-carboxymethyl-1H-tetrazol-5-yl)thio]methyl]-3-cephem-4-carboxylic acid] | 6.3 µg/mL | 3.1 µg/mL | 6.3 µg/mL | 6.3 µg/mL | 3.1 µg/mL | 6.3 µg/mL | 12.5 µg/mL | 12.5 µg/mL | 50 µg/mL | 25 µg/mL | 12.5 µg/mL | > 50 µg/mL |
| NC(=O)CC[C@H](N)C(=O)Nc1ccc(-c2ncc(C(=O)N[C@@H](C(=O)NC3C(=O)N4C(C(=O)O)=C(CSc5nnnn5CC(=O)O)CSC34)c3ccccc3)c(O)n2)cc1 (stereo partly drawn) [Example 41, N-[2-[4-(L-Glutaminylamino)phenyl]-4-hydroxy-5-pyrimidinylcarbonyl]-7-[D-2-amino-2-phenylacetamido]-3-[[(1-carboxymethyl-1H-tetrazol-5-yl)thio]methyl]-3-cephem-4-carboxylic acid] | 12.5 µg/mL (≈ 14.8 µM) | 3.1 µg/mL (≈ 3.66 µM) | 12.5 µg/mL (≈ 14.8 µM) | 3.1 µg/mL (≈ 3.66 µM) | 1.6 µg/mL (≈ 1.89 µM) | 12.5 µg/mL (≈ 14.8 µM) | 12.5 µg/mL (≈ 14.8 µM) | 12.5 µg/mL (≈ 14.8 µM) | 50 µg/mL (≈ 59 µM) | 25 µg/mL (≈ 29.5 µM) | 12.5 µg/mL (≈ 14.8 µM) | > 50 µg/mL |
| CC(=O)N[C@@H](C)C(=O)Nc1ccc(-c2ncc(C(=O)N[C@@H](C(=O)NC3C(=O)N4C(C(=O)O)=C(CSc5nnnn5CC(=O)O)CSC34)c3ccccc3)c(O)n2)cc1 (stereo partly drawn) [Example 33] | 12.5 µg/mL (≈ 15 µM) | 1.6 µg/mL (≈ 1.92 µM) | 6.3 µg/mL (≈ 7.57 µM) | 6.3 µg/mL (≈ 7.57 µM) | 3.1 µg/mL (≈ 3.73 µM) | 6.3 µg/mL (≈ 7.57 µM) | 12.5 µg/mL (≈ 15 µM) | 12.5 µg/mL (≈ 15 µM) | > 50 µg/mL | 25 µg/mL (≈ 30.1 µM) | 6.3 µg/mL (≈ 7.57 µM) | > 50 µg/mL |
| CC(=O)N[C@H](C)C(=O)Nc1ccc(-c2ncc(C(=O)N[C@@H](C(=O)N[C@@H]3C(=O)N4C(C(=O)O)=C(COC(C)=O)CS[C@H]34)c3ccc(O)cc3)c(O)n2)cc1 [Example 11, N-[2-[4-(N-Acetyl-D-alanylamino)phenyl]-4-hydroxy-5-pyrimidinylcarbonyl]-7-[D-2-amino-2-(4-hydroxyphenyl)-acetamido]-3-acetoxymethyl-3-cephem-4-carboxylic acid] | 50 µg/mL (≈ 66.9 µM) | 6.3 µg/mL (≈ 8.43 µM) | 50 µg/mL (≈ 66.9 µM) | 25 µg/mL (≈ 33.4 µM) | 12.5 µg/mL (≈ 16.7 µM) | 3.1 µg/mL (≈ 4.15 µM) | 6.3 µg/mL (≈ 8.43 µM) | 6.3 µg/mL (≈ 8.43 µM) | > 50 µg/mL | 25 µg/mL (≈ 33.4 µM) | 6.3 µg/mL (≈ 8.43 µM) | 50 µg/mL (≈ 66.9 µM) |
| CC(=O)NC(CCC(N)=O)C(=O)Nc1ccc(-c2ncc(C(=O)N[C@@H](C(=O)N[C@@H]3C(=O)N4C(C(=O)O)=C(COC(C)=O)CS[C@H]34)c3ccccc3)c(O)n2)cc1 (mixture of isomers) [Example 14, N-[2-[4-(N-Acetyl-DL-glutaminylamino)phenyl]-4-hydroxy-5-pyrimidinylcarbonyl]-7-[D-2-amino-2phenylacetamido]-3-acetoxymethyl-3-cephem-4-carboxylic acid] | 25 µg/mL | 6.3 µg/mL | 50 µg/mL | 12.5 µg/mL | 25 µg/mL | 6.3 µg/mL | 12.5 µg/mL | 12.5 µg/mL | > 50 µg/mL | 6.3 µg/mL | 1.6 µg/mL | 50 µg/mL |
